In one assay the test system is M. intracellulare. The experiment in a line: Antibacterial activity (MIC) against M. intracellulare. The assay is classed as cell-based, Mycobacterium intracellulare. The note with it: Table 3. As to the method:
Antibacterial activity of the compounds of the invention was measured in accordance with the method described in the literature of Antimicrob. Agents and Chemother., 38, 2877 (1994), and the results are shown in Tables 3 to 8 in terms of MIC (μg/ml). In the tables, “OFLX” is an abbreviation of “OFLOXAIN”.

The next assay deals with M. avium. The assay can be described thus: Antibacterial activity (MIC) against M. avium. In kind it is cell-based, Mycobacterium avium. Conditions: Table 3. As to the method: Antibacterial activity of the compounds of the invention was measured in accordance with the method described in the literature of Antimicrob. […] In the tables, “OFLX” is an abbreviation of “OFLOXAIN”.

Assay [1] has as its system Mycobacterium tuberculosis (RFP sensitive). The assay can be described thus: Antibacterial activity (MIC) against Mycobacterium tuberculosis (RFP sensitive). In kind it is cell-based. Conditions: Table 5.

≈ marks a conversion by molar mass, not a printed value.

The term MIC denotes the smallest concentration in the dilution series that meets the test's criterion for growth inhibition. Low readings indicate a more susceptible organism, high ones a less susceptible organism.

For the compound `Cc1c(N2CC(N)C3(CC3)C2)c(F)cc2c(=O)c(C(=O)O)cn(C3CC3)c12` (stereo not shown) [Compd. 11], the MIC with M. intracellulare (M. intracellulare N-294) was found to be 1.56 µg/mL (≈ 4.2 µM); against M. intracellulare (M. intracellulare N-313), 0.39 µg/mL (≈ 1.05 µM); against M. intracellulare (M. intracellulare N-338), 1.56 µg/mL (≈ 4.2 µM); in the assay with M. intracellulare (M. intracellulare N-345), 3.13 µg/mL (≈ 8.43 µM); with M. avium (M. avium N-357) it was 0.39 µg/mL (≈ 1.05 µM); in the assay on M. avium (M. avium N-444), 1.56 µg/mL (≈ 4.2 µM). Besides, the MIC was determined as 0.39 µg/mL (≈ 1.05 µM) with M. avium (M. avium N-458); 3.13 µg/mL (≈ 8.43 µM) against M. avium (M. avium N-472); 0.05 µg/mL (≈ 0.135 µM) in assay [1] (M. tuberculosis H37Rv); 0.05 µg/mL (≈ 0.135 µM) in assay [1] (M. tuberculosis Kurono); 0.05 µg/mL (≈ 0.135 µM) in assay [1] (M. tuberculosis No. 40); 0.013 µg/mL (≈ 0.035 µM) in assay [1] (M. tuberculosis No. 41). The values for the MIC in assay [1] (M. tuberculosis No. 43) and in assay [1] (M. tuberculosis No. 68) were 0.39 µg/mL (≈ 1.05 µM) and 0.05 µg/mL (≈ 0.135 µM), respectively.

For the compound `Cc1c(N2CC(N)C3(CC3)C2)c(F)cc2c(=O)c(C(=O)O)cn([C@@H]3C[C@@H]3F)c12` (stereo partly shown) [Compd. 12], the MIC against M. intracellulare (M. intracellulare N-294) was 0.78 µg/mL (≈ 2 µM); against M. intracellulare (M. intracellulare N-313), 0.20 µg/mL (≈ 0.514 µM); with M. intracellulare (M. intracellulare N-338) it was 0.39 µg/mL (≈ 1 µM); with M. intracellulare (M. intracellulare N-345), 0.39 µg/mL (≈ 1 µM); against M. avium (M. avium N-357), 0.20 µg/mL (≈ 0.514 µM); against M. avium (M. avium N-444), 0.39 µg/mL (≈ 1 µM). Further, the MIC with M. avium (M. avium N-458) worked out at 0.39 µg/mL (≈ 1 µM); in the assay on M. avium (M. avium N-472), 1.56 µg/mL (≈ 4.01 µM); in assay [1] (M. tuberculosis H37Rv), 0.025 µg/mL (≈ 0.0642 µM); in assay [1] (M. tuberculosis Kurono) it was 0.025 µg/mL (≈ 0.0642 µM); in assay [1] (M. tuberculosis No. 40), 0.025 µg/mL (≈ 0.0642 µM); in assay [1] (M. tuberculosis No. 41), 0.006 µg/mL (≈ 0.0154 µM). The MIC in assay [1] (M. tuberculosis No. 43) is 0.10 µg/mL (≈ 0.257 µM); in assay [1] (M. tuberculosis No. 68), 0.05 µg/mL (≈ 0.128 µM).

For the compound `C[C@H]1COc2c(N3CC4CCCNC4C3)c(F)cc3c(=O)c(C(=O)O)cn1c23` (stereo partly shown) [Compd. 13], the MIC in the assay with M. intracellulare (M. intracellulare N-294) was 1.56 µg/mL (≈ 4.03 µM); against M. intracellulare (M. intracellulare N-313) it was 0.39 µg/mL (≈ 1.01 µM); against M. intracellulare (M. intracellulare N-338), 1.56 µg/mL (≈ 4.03 µM); against M. intracellulare (M. intracellulare N-345), 3.13 µg/mL (≈ 8.08 µM); with M. avium (M. avium N-357), 0.39 µg/mL (≈ 1.01 µM); against M. avium (M. avium N-444) it was 0.78 µg/mL (≈ 2.01 µM). Moreover, the MIC came out at 0.20 µg/mL (≈ 0.516 µM) with M. avium (M. avium N-458); 1.56 µg/mL (≈ 4.03 µM) in the assay with M. avium (M. avium N-472); 0.05 µg/mL (≈ 0.129 µM) in assay [1] (M. tuberculosis H37Rv); 0.05 µg/mL (≈ 0.129 µM) in assay [1] (M. tuberculosis Kurono); 0.05 µg/mL (≈ 0.129 µM) in assay [1] (M. tuberculosis No. 40); 0.10 µg/mL (≈ 0.258 µM) in assay [1] (M. tuberculosis No. 68).

With `C[C@H]1COc2c(N3CC(N)C4(CC4)C3)c(F)cc3c(=O)c(C(=O)O)cn1c23` (stereo partly shown) [Compd. 14], the MIC against M. intracellulare (M. intracellulare N-294) is 3.13 µg/mL (≈ 8.38 µM); in the assay on M. intracellulare (M. intracellulare N-313) it was 0.78 µg/mL (≈ 2.09 µM); against M. intracellulare (M. intracellulare N-338), 6.25 µg/mL (≈ 16.7 µM); in the assay on M. intracellulare (M. intracellulare N-345) it was 6.25 µg/mL (≈ 16.7 µM); against M. avium (M. avium N-357) it was 1.56 µg/mL (≈ 4.18 µM); against M. avium (M. avium N-444), 3.13 µg/mL (≈ 8.38 µM). For the same compound, the MIC in the assay with M. avium (M. avium N-458) is 1.56 µg/mL (≈ 4.18 µM); against M. avium (M. avium N-472), 6.25 µg/mL (≈ 16.7 µM); in assay [1] (M. tuberculosis H37Rv), 0.20 µg/mL (≈ 0.536 µM); in assay [1] (M. tuberculosis Kurono), 0.10 µg/mL (≈ 0.268 µM); in assay [1] (M. tuberculosis No. 40), 0.20 µg/mL (≈ 0.536 µM); in assay [1] (M. tuberculosis No. 68), 0.20 µg/mL (≈ 0.536 µM).

These data come from patent US7176313B2, “Anti acid-fast bacterial agent containing pyridonecarboxylic acids as active ingredient” (Daiichi Pharmaceutical Co., Ltd., priority 2000, dated 2007).
